Test results from patent publication US20170340629A1 (AB SCIENCE, priority 2014, published 2017).
Structures can show the parent of a compound that is named as a salt. Where two headings read alike, the source gives them in different places. Values belong to the compound of their own block, whether it stands above or below them.

Experiments:
BT474 = assay: WST-1 proliferation/viability assay, BT474; assay type: cell-based, human; settings: 72 h, 1% FCS
Procedure: (§1) Breast cancer cell lines (generous gift from Dr. […], UMR 599 INSERM, Marseille, France) were cultured as monolayers in RPMI 1640 medium, containing L-glutamine supplemented with 100 U/mL penicillin and 100 μg/mL streptomycin, and 10% v/v heat-inactivated fetal calf serum (AbCys Lot S02823S1800) under standard culture conditions (5% CO2, 95% air in humidified chamber at 37° C.). During proliferation assay, all cells were grown in medium containing 1% FCS. Colorimetric cell proliferation and viability assay (reagent WST-1 purchased from Roche cat N^o 1644807)-Cells were washed once and resuspended in RPMI 1% FCS. Cells were plated at 1×10^4/50 μl per well of a 96 well plate. […] Treatment was started by the addition of 50 μl of a 2× concentrated drug solution to a final volume of 100 μl. […] After incubating for 72 hours at 37° C., 10 μl of a 1⁄2 dilution of WST-1 reagent was added to each well and the plates were returned to the incubator for an additional 4 hours. The absorbance of the samples was measured at 490 nm using an EL800 Universal microplate reader (Bio-Tek Instruments Inc.). A background control without cells was used as a blank. […] Each sample was done in duplicate, the absorbance values were transferred to an excel file, the average and standard deviation of the duplicates were calculated and expressed as a percentage of the proliferation obtained in absence of treatment. […]

MDAMB134 = assay: WST-1 proliferation/viability assay, MDAMB134; assay type: cell-based, human; settings: 72 h, 1% FCS
Procedure: (§2) Breast cancer cell lines (generous gift from Dr. […], UMR 599 INSERM, Marseille, France) were cultured as monolayers in RPMI 1640 medium, containing L-glutamine supplemented with 100 U/mL penicillin and 100 μg/mL streptomycin, and 10% v/v heat-inactivated fetal calf serum (AbCys Lot S02823S1800) under standard culture conditions (5% CO2, 95% air in humidified chamber at 37° C.). During proliferation assay, all cells were grown in medium containing 1% FCS. Colorimetric cell proliferation and viability assay (reagent WST-1 purchased from Roche cat N^o 1644807)-Cells were washed once and resuspended in RPMI 1% FCS. Cells were plated at 1×10^4/50 μl per well of a 96 well plate. […] Treatment was started by the addition of 50 μl of a 2× concentrated drug solution to a final volume of 100 μl. […] After incubating for 72 hours at 37° C., 10 μl of a 1⁄2 dilution of WST-1 reagent was added to each well and the plates were returned to the incubator for an additional 4 hours. The absorbance of the samples was measured at 490 nm using an EL800 Universal microplate reader (Bio-Tek Instruments Inc.). A background control without cells was used as a blank. The positive control of the assay corresponds to the cell proliferation obtained in the absence of drug treatment (100% proliferation). Each sample was done in duplicate, the absorbance values were transferred to an excel file, the average and standard deviation of the duplicates were calculated and expressed as a percentage of the proliferation obtained in absence of treatment. The results presented are representative of a minimum of four experiments.

MDAMB231 = assay: WST-1 proliferation/viability assay, MDAMB231; assay type: cell-based, human; settings: 72 h, 1% FCS
Procedure: as §2

MCF-7 = assay: WST-1 proliferation/viability assay, MCF-7; assay type: cell-based; settings: Homo sapiens, 72 h, 1% FCS
Procedure: as §1

[1] = system: TNBC (metastatic or locally advanced); settings: cisplatin alone (N = 58); Baselga et al. 2013; cited from earlier work
HCC1937 = assay: WST-1 proliferation/viability assay, HCC1937; assay type: cell-based; settings: Homo sapiens, doxorubicin single agent, 72 h, 1% FCS
Procedure: as §1

Mia Paca-2 cells = assay: WST-1 proliferation/survival assay, gemcitabine-resistant Mia Paca-2; assay type: cell-based; settings: for IC50: Homo sapiens, 72 hours, 1% FCS, read-out: IC50 single agent; for sensitization of cells to gemcitabine by TKI pre-incubation: TKI 5 or 10 μM overnight before gemcitabine, FIG. 2; for cell proliferation, single agent: TKI 10 μM
Procedure: The antiproliferative activity of each TKI and gemcitabine is assessed using a WST-1 proliferation/survival assay in growth medium containing 1% fetal calf serum (FCS). Treatment is started with the addition of the relevant drug. For combination treatment (TKI plus gemcitabine), cells are re-suspended in medium (1% FCS) containing 0, 5 or 10 μM of the relevant TKI and incubated overnight before gemcitabine addition. After 72 hours, WST-1 reagent is added and incubated with the cells for 4 hours before absorbance measurement at 450 nm in an EL800 Universal Microplate Reader (Bio-Tek Instruments Inc.). Media alone is used as a blank and proliferation in the absence of drug served as a positive control. A TKI sensitization index is calculated as the ratio of the IC50 of gemcitabine against the IC50 of the drug combination.

BT20 = assay: WST-1 proliferation/viability assay, BT20; assay type: cell-based; settings: Homo sapiens, BT-20, gemcitabine single agent, 72 h, 1% FCS
Procedure: as §1

[2] = system: relapsed or refractory inflammatory breast cancer; settings: lapatinib 1500 mg/day; 126 patients; Kaufman et al. 2009; cited from earlier work
breast cancer cell lines = assay: WST-1 proliferation assay, masitinib mesilate single agent; assay type: cell-based; settings: Homo sapiens, 1% FCS
Procedure: Breast cancer cell lines (generous gift from Dr. […], UMR 599 INSERM, Marseille, France) were cultured as monolayers in RPMI 1640 medium, containing L-glutamine supplemented with 100 U/mL penicillin and 100 μg/mL streptomycin, and 10% v/v heat-inactivated fetal calf serum (AbCys Lot S02823S1800) under standard culture conditions (5% CO2, 95% air in humidified chamber at 37° C.). During proliferation assay, all cells were grown in medium containing 1% FCS. Colorimetric cell proliferation and viability assay (reagent WST-1 purchased from Roche cat N^o 1644807)-Cells were washed once and resuspended in RPMI 1% FCS. Cells were plated at 1×10^4/50 μl per well of a 96 well plate. […] Treatment was started by the addition of 50 μl of a 2× concentrated drug solution to a final volume of 100 μl. […] The absorbance of the samples was measured at 490 nm using an EL800 Universal microplate reader (Bio-Tek Instruments Inc.). […] Each sample was done in duplicate, the absorbance values were transferred to an excel file, the average and standard deviation of the duplicates were calculated and expressed as a percentage of the proliferation obtained in absence of treatment. […] Breast cancer cell lines were first analyzed for their sensitivity to masitinib mesilate when used as single agent.

[3] = system: CMT-U27 canine mammary carcinoma cell line; assay: MTT proliferation assay and combination index, CMT-U27; assay type: cell-based; settings: for IC50: single agent, read-out: IC50 growth inhibitory activity
Procedure: (§3) Two canine mammary tumor (CMT) cell lines were evaluated, CMT-U27 and CMT-U309. CMT-U27 is a highly metastatic canine mammary carcinoma cell line while CMT-U309 is a non-metastatic spindle-cell cell line. Cell lines were maintained in Dulbecco's modified Eagles Medium-F12 supplemented with 10% fetal bovine serum and antimicrobials (penicillin [100 U/mL] and streptomycin [0.1 mg/mL]). Cell lines were maintained in a humidified atmosphere of 5% carbon dioxide at 37° C.
(§4) Solutions were prepared newly prepared from the stock solution for each experiment.
(§5) Cells were seeded at a density of 1.0×10^4 cells/well (final volume, 100 μL/well) in three replicates. […] At the end of treatment, 10 μl of MTT solution (5 mg/ml in PBS) was added to each well. The plates were incubated for 4 hours in a humidified atmosphere at 37° C. with 5% CO2. After that incubation, cell proliferation was assessed by use of a commercial cell proliferation MTT [3-(4,5-dimethylthiazol-2-yl)-2,5-diphenyltrazolium bromide] kit. All samples were assayed in triplicate, and the mean for each experiment was calculated. The effect of each compound on growth inhibition was assessed as percent cell viability where vehicle-treated cells were taken as 100% viable. Cell proliferation was expressed as a percentage of the control wells by use of the following equation: (absorbance of sample wells/absorbance of control wells)×100. The mean of triplicate experiments for each dose was used to calculate IC50 as determined by CalcuSyn software.

[4] = system: CMT-U309 canine mammary tumor cell line; assay: MTT proliferation assay and combination index, CMT-U309; settings: for Viability (%): 72 hours incubation, doses at single-agent IC50 concentrations; for IC50: single agent
Procedure: as §3, §4, §5

[5] = system: metastatic or locally advanced breast cancer (except triple negative); settings: patients resistant to at least one first-line chemotherapy; literature (Miller 2005; Brodowicz 2000); cited from earlier work
[6] = carboplatin single agent, read-out: IC50 CPT
[7] = Canis lupus familiaris, 24 h, read-out: IC50 growth inhibitory activity, CMT-U309, 24 h
[8] = Canis lupus familiaris, 48 h, read-out: IC50 growth inhibitory activity, CMT-U309, 48 h
[9] = Canis lupus familiaris, 72 h, read-out: IC50 growth inhibitory activity, CMT-U309, 72 h

SMILES: N.N.O=C([O-])C1(C(=O)[O-])CCC1.[Pt+2] [CPT, carboplatin]
IC50 (BT474; [6]): > 100 µM | IC50 (MDAMB134; [6]): > 100 µM | IC50 (MDAMB231; [6]): > 100 µM

IC50 (MCF-7; MCF7, irinotecan single agent, read-out: IC50 CPT-11): 100 µM | IC50 (MDAMB134; Homo sapiens, irinotecan single agent, read-out: IC50 CPT-11): 30 µM | IC50 (MDAMB231; Homo sapiens, MDA-MB-231, irinotecan single agent, read-out: IC50 CPT-11): 30 µM
SMILES: CCc1c2c(nc3ccc(OC(=O)N4CCC(N5CCCCC5)CC4)cc13)-c1cc3c(c(=O)n1C2)COC(=O)[C@]3(O)CC [CPT-11, irinotecan]

SMILES: N.N.[Cl][Pt][Cl] [Cisplatin, cisplatin]
Median OS (months) [1]: 9.4 months

IC50 (HCC1937): 1 µM | IC50 (MCF-7; MCF7, doxorubicin single agent, read-out: IC50 DOX): 1 µM | IC50 (MDAMB134; Homo sapiens, doxorubicin single agent, read-out: IC50 DOX): 1 µM | IC50 (MDAMB231; Homo sapiens, MDA-MB-231, doxorubicin single agent, read-out: IC50 DOX): 1 µM
SMILES: COc1cccc2c1C(=O)c1c(O)c3c(c(O)c1C2=O)C[C@@](O)(C(=O)CO)C[C@@H]3O[C@H]1C[C@H](N)[C@H](O)[C@H](C)O1 [DOX, doxorubicin]

IC50 (BT474; Homo sapiens, BT-474, gemcitabine single agent, read-out: IC50 GCB): 100 µM | IC50 (BT20): 50 µM | IC50 (MDAMB134; Homo sapiens, gemcitabine single agent, read-out: IC50 GCB): 100 µM | IC50 (MDAMB231; Homo sapiens, MDA-MB-231, gemcitabine single agent, read-out: IC50 GCB): 100 µM
SMILES: Nc1ccn([C@@H]2O[C@H](CO)[C@@H](O)C2(F)F)c(=O)n1 [GCB, 2′,2′,-dofluoro-2′,-deoxycytidine]
IC50 (Mia Paca-2 cells): > 10 µM

SMILES: CS(=O)(=O)CCNCc1ccc(-c2ccc3ncnc(Nc4ccc(OCc5cccc(F)c5)c(Cl)c4)c3c2)o1 [Lapatinib, lapatinib]
Median overall survival [2]: 11.2 months

IC50 (breast cancer cell lines): > 6 µM
SMILES: Cc1ccc(NC(=O)c2ccc(CN3CCN(C)CC3)cc2)cc1Nc1nc(-c2cccnc2)cs1 [Masitinib mesilate]

IC50 ([3]; 72 h): 7.5 µM | IC50 ([3]; Canis lupus familiaris, 24 h): 9.13 µM | IC50 ([3]; Canis lupus familiaris, 48 h): 7.61 µM | IC50 ([3]; Canis lupus familiaris, 72 h): 7.5 µM | IC50 [4, 7]: 15 µM | IC50 [4, 8]: 8.87 µM | IC50 [4, 9]: 8.5 µM | IC50 ([4]; read-out: IC50 growth inhibitory activity, CMT-U309, 72 h): 8.54 µM
SMILES: Cc1ccc(NC(=O)c2ccc(CN3CCN(C)CC3)cc2)cc1Nc1nc(-c2cccnc2)cs1 [Masitinib, 4-(4-methylpiperazin-1-ylmethyl)-N-[4-methyl-3-(4-pyridin-3ylthiazol-2-ylamino)phenyl]benzamide]
Viability (%) ([3]; 72 hours incubation, doses at single-agent IC50 concentrations): 77.3% | Viability (%) ([4]; CMT-U309): 66.0% | IC50 (Mia Paca-2 cells): 5 to 10 µM | sensitization of cells to gemcitabine by TKI pre-incubation (Mia Paca-2 cells): significantly sensitized | cells remaining resistant (Mia Paca-2 cells; masitinib concentration of 10 μM, FIG. 1): more than 50%

SMILES: O=C1c2c(O)ccc(O)c2C(=O)c2c(NCCNCCO)ccc(NCCNCCO)c21 [Mitoxantrone, Mitoxantrone dihydrochloride]
IC50 ([3]; 72 h, listed as Mixoxantrone, dihydrochloride): 0.219 µM | IC50 ([3]; Canis lupus familiaris, 24 h): 3.09 µM | IC50 ([3]; Canis lupus familiaris, 48 h): 1.11 µM | IC50 ([3]; Canis lupus familiaris, 72 h): 0.22 µM | Viability (%) ([4]; CMT-U309): 56.8% | IC50 [4, 7]: 2.77 µM | IC50 [4, 8]: 1 µM | IC50 [4, 9]: 0.75 µM | IC50 ([4]; read-out: IC50 growth inhibitory activity, CMT-U309, 72 h, dihydrochloride): 0.751 µM

SMILES: CCCCCOC(=O)Nc1nc(=O)n([C@@H]2O[C@H](C)[C@@H](O)[C@H]2O)cc1F [capecitabine]
Median OS (months), benchmark single agent (L2) [5]: 14.5 months

SMILES: Cc1nc(Nc2ncc(C(=O)Nc3c(C)cccc3Cl)s2)cc(N2CCN(CCO)CC2)n1 [dasatinib]
cell proliferation, single agent (Mia Paca-2 cells; FIG. 1): affected by a similar extent | sensitization of cells to gemcitabine by TKI pre-incubation (Mia Paca-2 cells): does not result in an increased response | cell proliferation at low concentrations (Mia Paca-2 cells; concentrations superior to 0.1 μM): partial inhibition

SMILES: Cc1ccc(NC(=O)c2ccc(CN3CCN(C)CC3)cc2)cc1Nc1nccc(-c2cccnc2)n1 [imatinib]
cell proliferation, single agent (Mia Paca-2 cells; FIG. 1): only weakly inhibited | sensitization of cells to gemcitabine by TKI pre-incubation (Mia Paca-2 cells): does not result in an increased response
